Here are results for 2 compounds from US5002949A, “5-substituted-6-aminopyrimidine derivatives” (American Home Products Corporation, priority 1990, dated 1991).

One assay has as its system white thrombus formation. The assay can be described thus: inhibition of white thrombus formation in the rabbit arteriovenous model. The format is in vivo.
The subject of assay [1] is platelet aggregation induced by arachidonic acid. In words: inhibition of platelet aggregation induced by arachidonic acid. The class given is cell-based. An excerpt: (§1) As representative compounds, 5-bromo-6-[[(5-bromo-3-pyridinylmethyl]amino]-2-methyl-4(1H)-pyrimidinone,HBr (Compound A) and 5-cyano-2-methyl-6-[[3-pyridinyl)methyl)]amino]-4(1H)-pyrimidinone hydrochloride (Compound B) inhibited platelet aggregation as follows.

Assay [2] has as its system platelet aggregation induced by U46619 (endoperoxide). The assay can be described thus: inhibition of platelet aggregation induced by U46619 (endoperoxide). The class given is cell-based.
Description: as §1

Assay [3] concerns platelet aggregation induced by epinephrine. The assay can be described thus: inhibition of platelet aggregation induced by epinephrine. The format is cell-based. To be noted: Epinephrine (second phase).
Description: as §1

The subject of assay [4] is platelet aggregation induced by adenosine diphosphate. The assay can be described thus: inhibition of platelet aggregation induced by adenosine diphosphate (ADP). The format is cell-based. To be noted: ADP (second phase).
Description: as §1

Assay [5] deals with platelet aggregation induced by collagen. The assay can be described thus: inhibition of platelet aggregation induced by collagen. The format is cell-based.
Description: as §1

Usually IC50 stands for the concentration that gives 50% inhibition. A low value points to higher potency.

Each structure is given as a SMILES string. Structures can show the parent of a compound that is named as a salt.

As to `Cc1nc(NCc2cccnc2)c(C#N)c(=O)[nH]1` [Compound B, 5-cyano-2-methyl-6-[[3-pyridinyl)methyl)]amino]-4(1H)-pyrimidinone hydrochloride], the “Percent Inhibition (thrombus weight)” value was 41.7% in the assay on white thrombus formation (0.5 mg/kg i.v.), 56.8% in the assay with white thrombus formation (1.0 mg/kg i.v.) and 76.7% in the assay on white thrombus formation (5.0 mg/kg i.v.). For the same compound, the IC50 in assay [1] is 2.8 µM; in assay [2] it was 6.6 µM; in assay [3], 10.8 µM; in assay [4], 6.3 µM; in assay [5], 13.3 µM.
Take `Cc1nc(NCc2cncc(Br)c2)c(Br)c(=O)[nH]1` [Compound A]: the figures for the “Percent Inhibition (thrombus weight)” value in the assay on white thrombus formation (0.1 mg/kg i.v.) and with white thrombus formation (0.25 mg/kg i.v.) were 28.4% and 47.1%, respectively. Further, the IC50 in assay [1] was found to be 0.18 µM; in assay [2] it was 0.21 µM; in assay [3] it was 0.43 µM; in assay [4], 0.2 µM; in assay [5], 0.54 µM.
